The source of these data is patent US10294217B2, “Fluoroindole derivatives as muscarinic M1 receptor positive allosteric modulators” (Suven Life Sciences Limited, priority 2015, dated 2019).

Molecules are shown by their SMILES. Counter-ions that a name gives are not always drawn.

The first assay addresses human Muscarinic M1 receptor (Homo sapiens (Human), UniProt P11229). The experiment in a line: Allosteric potency EC50 for muscarinic M1 receptor (CHO cells, pCRE-Luc reporter). The conditions noted are these: hM1 PAM EC50, in presence of EC20 of acetylcholine; luciferase activity, 4 hours. It is filed as cell-based. The protocol:
Determination of Allosteric Potency EC50 Values for Muscarinic M1 Receptor:
A stable CHO cell line expressing recombinant human Muscarinic M1 receptor and pCRE-Luc reporter system was used for cell-based assay. The assay offers a non-radioactive based approach to determine binding of a compound to GPCRs. In this specific assay, the level of intracellular cyclic AMP which is modulated by activation or inhibition of the receptor is measured. The recombinant cells harbor luciferase reporter gene under the control of cAMP response element.
The above cells were grown in 96 well clear bottom white plates in Hams F12 medium containing 10% fetal bovine serum (FBS). Prior to the addition of compounds or standard agonist, cells were serum starved overnight. Increasing concentrations of test compounds were added along with EC20 of acetylcholine in OptiMEM medium to the cells. The incubation was continued at 37° C. in CO2 incubator for 4 hours. Medium was removed and cells were washed with phosphate buffered saline. The cells were lysed and luciferase activity was measured in a Luminometer. Luminescence units were plotted against the compound concentrations using Graphpad software. EC50 values of the compounds were defined as the concentration required in stimulating the luciferase activity by 50% in presence of EC20 of acetylcholine and the results are provided in table 1.
What is called EC50 is the concentration giving half of the maximal effect. In the case of `O=C(N[C@H]1CCNC[C@H]1F)c1cn(Cc2ccnc(Cl)c2)c2c(F)ccc(F)c12` (racemic) [Example 28, cis-N-(3-Fluoropiperidin-4-yl)-1-(2-chloropyridin-4-ylmethyl)-4,7-difluoro-1H-indole-3-carboxamide hydrochloride (Racemate)], the 50% effective concentration (EC50) was 1.57 µM.
On the same count and under the same terms, the result for `O=C(N[C@@H]1CCNC[C@H]1F)c1cn(Cc2ccnc(F)c2)c2c(F)ccc(F)c12` (single isomer, unassigned; isomer-i) [Example 24, trans-N-(3-Fluoropiperidin-4-yl)-1-(2-fluoropyridin-4-ylmethyl)-4,7-difluoro-1H-indole-3-carboxamide hydrochloride (Isomer-I)] reads 1.39 µM.
The same measure, in the same setting: in the case of `O=C(N[C@H]1CCNC[C@H]1F)c1cn(Cc2ccncc2F)c2c(F)ccc(F)c12` (single isomer, unassigned; isomer-i) [Example 26, cis-N-(3-Fluoropiperidin-4-yl)-1-(5-fluoropyridin-4-ylmethyl)-4,7-difluoro-1H-indole-3-carboxamide hydrochloride (Isomer-I)] it was 1.1 µM; in that of `O=C(N[C@H]1CCNC[C@H]1F)c1cn(Cc2ccnc(Cl)c2)c2cccc(F)c12` (single isomer, unassigned; isomer-i) [Example 27, cis-N-(3-Fluoropiperidin-4-yl)-1-(2-chloropyridin-4-ylmethyl)-4-fluoro-1H-indole-3-carboxamide hydrochloride (Isomer-I)], 1.69 µM.
`O=C(N[C@H]1CCNC[C@H]1F)c1cn(Cc2ccnc(Cl)c2)c2c(F)ccc(F)c12` (single isomer, unassigned; isomer-i) [Example 29, cis-N-(3-Fluoropiperidin-4-yl)-1-(2-chloropyridin-4-ylmethyl)-4,7-difluoro-1H-indole-3-carboxamide hydrochloride (Isomer-I)]: the EC50 worked out at 2.92 µM.
Regarding `O=C(N[C@H]1CCNC[C@H]1F)c1cn(Cc2ccc(F)cc2)c2c(F)ccc(F)c12` (single isomer, unassigned; isomer-i) [Example 31, cis-N-(3-Fluoropiperidin-4-yl)-1-(4-fluorobenzyl)-4,7-difluoro-1H-indole-3-carboxamide hydrochloride (Isomer-I)], the EC50 was 1.61 µM.
Still for that read-out and setting: the result for `O=C(N[C@H]1CCNC[C@H]1F)c1cn(Cc2ccccc2F)c2cccc(F)c12` (single isomer, unassigned; isomer-i) [Example 33, cis-N-(3-Fluoropiperidin-4-yl)-1-(2-fluorobenzyl)-4-fluoro-1H-indole-3-carboxamide hydrochloride (Isomer-I)] reads 1.37 µM; that for `O=C(N[C@H]1CCNC[C@H]1F)c1cn(Cc2ccc(Cl)cc2)c2cccc(F)c12` (single isomer, unassigned; isomer-i) [Example 34, cis-N-(3-Fluoropiperidin-4-yl)-1-(4-chlorobenzyl)-4-fluoro-1H-indole-3-carboxamide hydrochloride (Isomer-I)], 1.39 µM; that for `COc1ccc(Cn2cc(C(=O)N[C@H]3CCNC[C@H]3F)c3c(F)ccc(F)c32)cc1` (single isomer, unassigned; isomer-i) [Example 39, cis-N-(3-Fluoropiperidin-4-yl)-1-(4-methoxybenzyl)-4,7-difluoro-1H-indole-3-carboxamide hydrochloride (Isomer-I)], 1.48 µM.
Same read-out and setting: the result for `O=C(N[C@H]1CCNC[C@H]1F)c1cn(Cc2ccnc(F)c2)c2cccc(F)c12` (single isomer, unassigned; isomer-i) [Example 44, cis-N-(3-Fluoropiperidin-4-yl)-1-(2-fluoropyridin-4-ylmethyl)-4-fluoro-1H-indole-3-carboxamide hydrochloride (Isomer-I)] reads 1.31 µM; that for `O=C(N[C@H]1CCNC[C@H]1F)c1cn(Cc2ccc3ncsc3c2)c2cccc(F)c12` (single isomer, unassigned; isomer-i) [Example 45, cis-N-(3-Fluoropiperidin-4-yl)-1-(benzothiazol-6-ylmethyl)-4-fluoro-1H-indole-3-carboxamide hydrochloride (Isomer-I)], 1.16 µM; that for `O=C(NC1CCNCC1F)c1cn(Cc2ccnc(F)c2)c2c(F)ccc(F)c12` (single isomer, unassigned; isomer-ii) [Example 23, cis-N-(3-Fluoropiperidin-4-yl-1-(2-fluoropyridin-4-ylmethyl)-4,7-difluoro-1H-indole-3-carboxamide hydrochloride (Isomer-II)], 1.07 µM.
Still for that read-out and setting: in the case of `O=C(N[C@@H]1CCNC[C@H]1F)c1cn(Cc2ccnc(F)c2)c2c(F)ccc(F)c12` (single isomer, unassigned; isomer-ii) [Example 25, trans-N-(3-Fluoropiperidin-4-yl)-1-(2-fluoropyridin-4-ylmethyl)-4,7-difluoro-1H-indole-3-carboxamide hydrochloride (Isomer-II)] it was 1.44 µM; in that of `O=C(N[C@H]1CCNC[C@H]1F)c1cn(Cc2ccc(F)cc2)c2c(F)ccc(F)c12` (single isomer, unassigned; isomer-ii) [Example 32, cis-N-(3-Fluoropiperidin-4-yl)-1-(4-fluorobenzyl)-4,7-difluoro-1H-indole-3-carboxamide hydrochloride (Isomer-II)], 1.59 µM; in that of `COc1cccc(Cn2cc(C(=O)N[C@H]3CCNC[C@H]3F)c3c(F)cccc32)c1` (single isomer, unassigned; isomer-ii) [Example 36, cis-N-(3-Fluoropiperidin-4-yl)-4-fluoro-1-(3-methoxybenzyl)-1H-indole-3-carboxamide hydrochloride (Isomer-II)], 1.35 µM.
In the case of `COc1ccc(Cn2cc(C(=O)N[C@H]3CCNC[C@H]3F)c3c(F)cccc32)cc1` (single isomer, unassigned; isomer-ii) [Example 37, cis-N-(3-Fluoropiperidin-4-yl)-1-(4-methoxybenzyl)-4-fluoro-1H-indole-3-carboxamide hydrochloride (Isomer-II)], the EC50 is 1.99 µM.

Still in this assay, the particulars now being: in presence of EC20 of acetylcholine; luciferase activity, 4 hours; read-out: hM1 PAM EC50.
For the molecule `Cn1cc(Cn2cc(C(=O)N[C@@H]3CCCC[C@H]3O)c3c(F)cccc32)cn1` [Example 3, N-[(1R,2R)-2-Hydroxycyclohexyl]-1-(1-methyl-1H-pyrazol-4-ylmethyl)-4-fluoro-1H-indole-3-carboxamide], the EC50 was 1.64 µM.
As to `Cn1nc(Cn2cc(C(=O)N[C@H]3CCCC[C@@H]3O)c3c(F)cccc32)c2ccccc21` [Example 4], the EC50 is 1.49 µM.
For `O=C(N[C@H]1CCCC[C@@H]1O)c1cn(Cc2ccncc2F)c2cccc(F)c12` [Example 9, N-[(1S,2S)-2-Hydroxycyclohexyl]-1-(3-fluoropyridin-4-ylmethyl)-4-fluoro-1H-indole-3-carboxamide], the concentration for a half-maximal effect (EC50) is 1.42 µM.
With `O=C(N[C@H]1CCCC[C@@H]1O)c1cn(Cc2ccnc(F)c2F)c2cccc(F)c12` [Example 13, N-[(1S,2S)-2-Hydroxycyclohexyl]-1-(2,3-difluoropyridin-4-ylmethyl)-4-fluoro-1H-indole-3-carboxamide], the 50% effective concentration (EC50) is 1.38 µM.
Regarding `O=C(N[C@H]1CCCC[C@@H]1O)c1cn(Cc2ccc3ncsc3c2)c2cccc(F)c12` [Example 18, N-[(1S,2S)-2-Hydroxycyclohexyl]-1-(benzothiazol-6-ylmethyl)-4-fluoro-1H-indole-3-carboxamide], the half-maximal effective concentration (EC50) was found to be 0.16 µM.
